Test results taken from patent publication US20230085578A1, “SYSTEMS AND METHODS FOR TRIPLE-PARAMETRIC OPTICAL MAPPING” (The George Washington University, priority 2021, published 2023).
Where two headings read alike, the source gives them in different places.

System: mouse hearts
Test: Triple parametric optical mapping (Vm, Ca2+, NADH) of Langendorff-perfused mouse hearts during drug treatment
Design: Effect on contractions of the heart (electromechanical uncoupling): dose or concentration left out as unconfirmed
Details: for APD80 (action potential duration) / AR (anisotropic ratio, CVL to CVT) / CVL (longitudinal conduction velocity) / CVT (transverse conduction velocity) / Ca2+ RT (rise time) / Ca t (calcium decay time constant) / CaTD80 (calcium transient duration) / NADH fluorescence intensity (normalized to first recording of the heart) / Vm RT (rise time) / Vm-Ca2+ delay: Blebbistatin 15 μM, Verapamil 1 μM, mean±SEM
Procedure: Langendorff perfusion: Adult male and female mice on C57BL/6 background were used in this study. Mice were anesthetized by isoflurane inhalation and cervical dislocation was performed. Hearts were quickly excised following thoracotomy and the aorta was cannulated. The heart was attached to a Langendorff perfusion system, hung in a vertical position in a temperature-controlled bath and perfused with a modified Tyrode's solution containing (in mM) 130 NaCl, 24 NaHCO3, 1.2 NaH2PO4, 1 MgCl2, 5.6 Glucose, 4 KCl, 1.8 CaCl2, pH 7.40 and bubbled with carbogen (95% 02 and 5% CO2) at 37° C. Perfusion pressure was maintained at ˜80 mmHg by adjusting the flow rate between 1 and 1.5 ml/min. A platinum bipolar electrode was placed at the center of the anterior surface residing the middle of the field of view. Gentle pressure was applied to the back of the heart as it was pushed up to the front optical glass of the bath using a paddle, allowing the pacing electrode to be held in place. Electrical stimuli were applied to determine the threshold of pacing. Hearts were paced at 1.5× pacing threshold amplitude and 2 ms stimulus duration, only during optical recording. Hearts were paced at varying rates as listed in the figures to determine the restitution properties of the heart under each condition.
Optical Mapping: The heart was subjected to a 10 min equilibration period followed by staining with the voltage- and calcium-sensitive dyes. A 1 ml mixture of RH237 ([…] Tyrode's solution, Biotium 61018) was prepared and immediately injected into the dye port above the cannula over a 3-5 min period. This was followed by a 5 min washout period. Similarly, a 1 ml mixture of Rhod2-AM (30 ul of 1 mg/ml dye stock solution+[…] Tyrode's solution, Thermo Fisher Scientific R1244 and Biotium 59005, respectively) was prepared and immediately injected into the dye port over a 3-5 min period. This was followed by 5 min dye washout period.
The heart was then illuminated by two LED excitation light sources at 365 nm and 520±5 nm wavelengths. While the former induces autofluorescence of NADH in the tissue, the latter excites both RH237 and Rhod2-AM dyes. Control optical recordings of NADH, Vm, and Ca^2+ were simultaneously acquired at 1 kHz sampling rate. NADH, Vm, and Ca^2+ are indicative of […].
[…] […] Optical recordings were once again acquired for each of these conditions as described above.
Data Analysis: Optical data of NADH, transmembrane potential and calcium were analyzed using a custom Matlab software, Rhythm 3.0, which is available in an open-source format on Github. Rhythm 3.0 which is an upgraded version of Rhythm 1.2, incorporates NADH visualization and analysis features as well as the ability to calculate delay in transmembrane potential to intracellular calcium activation (Vm-Ca^2+ Delay). Rhythm software was written to analyze data formats generated by SciMedia systems but can be modified to analyze other data formats.
Ten different parameters were measured from the 3 optical signals that were simultaneously recorded under each condition using the Rhythm 3.0 software to determine MECC. The ten parameters include, from transmembrane potential: (1) rise time (Vm RT), (2) action potential duration (APD80), (3) transverse and (4) longitudinal conduction velocity (CVT and CVL) and (5) anisotropic ratio (AR), from intracellular calcium: (6) rise time (Ca^2+ RT), (7) calcium transient duration (CaTD80), (8) calcium decay time constant (t), (9) Vm-Ca^2+ delay and (10) NADH fluorescence intensity.

## Nc1ccncc1 [4-AP, 4-aminopyridine]
4-AP 7 mM in presence of blebbistatin
  BCL at which pacing of the hearts was prevented (no 1:1 capture): < 125 ms
150 ms BCL, 4-AP 7 mM vs blebbistatin
  Change in CVT (in words): slowed
150 ms BCL, blebbistatin vs Control, 4-AP 7 mM vs blebbistatin
  Change in Ca2+ RT (in words): prolonged
BCL 125, 4-AP 7 mM
  APD80 (action potential duration): 69.09 ± 7.52
  AR (anisotropic ratio, CVL to CVT): 1.80 ± 0.19
  CVL (longitudinal conduction velocity): 0.47 ± 0.07
  CVT (transverse conduction velocity): 0.27 ± 0.05
  Ca2+ RT (rise time): 6.82 ± 1.39
  Ca t (calcium decay time constant): 27.106 ± 6.26
  CaTD80 (calcium transient duration): 79.32 ± 2.28
  NADH fluorescence intensity (normalized to first recording of the heart): 0.98 ± 0.07
  Vm RT (rise time): 5.15 ± 0.29
  Vm-Ca2+ delay: −1.88 ± 1.79
BCL 150, 4-AP 7 mM
  APD80 (action potential duration): 78.13 ± 3.52
  AR (anisotropic ratio, CVL to CVT): 1.90 ± 0.45
  CVL (longitudinal conduction velocity): 0.53 ± 0.09
  CVT (transverse conduction velocity): 0.28 ± 0.05
  Ca2+ RT (rise time): 7.05 ± 1.03
  Ca t (calcium decay time constant): 30.94 ± 5.51
  CaTD80 (calcium transient duration): 88.37 ± 6.37
  NADH fluorescence intensity (normalized to first recording of the heart): 0.97 ± 0.06
  Vm RT (rise time): 4.94 ± 0.63
  Vm-Ca2+ delay: −1.71 ± 2.13
BCL 200, 4-AP 7 mM
  APD80 (action potential duration): 84.56 ± 6.68
  AR (anisotropic ratio, CVL to CVT): 1.97 ± 0.37
  CVL (longitudinal conduction velocity): 0.66 ± 0.06
  CVT (transverse conduction velocity): 0.32 ± 0.05
  Ca2+ RT (rise time): 7.04 ± 1.57
  Ca t (calcium decay time constant): 37.11 ± 11.58
  CaTD80 (calcium transient duration): 96.41 ± 8.18
  NADH fluorescence intensity (normalized to first recording of the heart): 0.97 ± 0.07
  Vm RT (rise time): 4.79 ± 0.23
  Vm-Ca2+ delay: −1.48 ± 1.38
All tested pacing rates, vs blebbistatin
  Change in APD80 (in words): prolonged

## Cc1ccc2c(c1)C(=O)C1(O)CCN(c3ccccc3)C1=N2 (centres unmarked) [Blebbistatin, blebbistatin]
  Change in CVT (in words): faster
  Change in Ca2+ RT (in words): increased
  Change in NADH intensity (in words): reduced
  Number of the 10 measured parameters altered: 2
blebbistatin
  Effect on contractions of the heart (electromechanical uncoupling): abolished contractions

## COc1ccc(CCN(C)CCCC(C#N)(c2ccc(OC)c(OC)c2)C(C)C)cc1OC (centres unmarked) [Verapamil, verapamil]
BCL 80
  APD80 (action potential duration): 31.06 ± 0.00
  CVL (longitudinal conduction velocity): 0.28 ± 0.00
  CVT (transverse conduction velocity): 0.21 ± 0.00
  Ca2+ RT (rise time): 8.09 ± 0.00
  Ca t (calcium decay time constant): 13.71 ± 0.00
  CaTD80 (calcium transient duration): 60.74 ± 0.00
  NADH fluorescence intensity (normalized to first recording of the heart): 1.04 ± 0.00
  Vm-Ca2+ delay: −2.81 ± 0.00
BCL 90
  APD80 (action potential duration): 44.72 ± 9.21
  CVL (longitudinal conduction velocity): 0.35 ± 0.03
  CVT (transverse conduction velocity): 0.18 ± 0.04
  Ca2+ RT (rise time): 8.16 ± 1.36
  Ca t (calcium decay time constant): 17.15 ± 1.92
  CaTD80 (calcium transient duration): 63.46 ± 2.71
  NADH fluorescence intensity (normalized to first recording of the heart): 0.98 ± 0.07
  Vm RT (rise time): 4.65 ± 0.10
  Vm-Ca2+ delay: −6.07 ± 2.54
BCL 100
  APD80 (action potential duration): 45.75 ± 10.51
  CVL (longitudinal conduction velocity): 0.60 ± 0.02
  CVT (transverse conduction velocity): 0.23 ± 0.03
  Ca2+ RT (rise time): 9.54 ± 0.43
  Ca t (calcium decay time constant): 20.41 ± 3.36
  CaTD80 (calcium transient duration): 69.61 ± 3.02
  NADH fluorescence intensity (normalized to first recording of the heart): 0.99 ± 0.08
  Vm RT (rise time): 4.70 ± 0.39
  Vm-Ca2+ delay: −5.22 ± 1.73
BCL 125, 4-AP 7 mM
  APD80 (action potential duration): 49.46 ± 6.20
  CVL (longitudinal conduction velocity): 0.59 ± 0.03
  CVT (transverse conduction velocity): 0.28 ± 0.03
  Ca2+ RT (rise time): 8.28 ± 0.96
  Ca t (calcium decay time constant): 32.14 ± 11.32
  CaTD80 (calcium transient duration): 77.16 ± 7.51
  NADH fluorescence intensity (normalized to first recording of the heart): 0.99 ± 0.08
  Vm RT (rise time): 4.57 ± 0.25
  Vm-Ca2+ delay: −7.06 ± 4.13
BCL 150, 4-AP 7 mM
  APD80 (action potential duration): 54.39 ± 11.88
  CVL (longitudinal conduction velocity): 0.67 ± 0.02
  CVT (transverse conduction velocity): 0.29 ± 0.01
  Ca2+ RT (rise time): 9.31 ± 0.93
  Ca t (calcium decay time constant): 32.38 ± 4.88
  CaTD80 (calcium transient duration): 89.183 ± 11.79
  NADH fluorescence intensity (normalized to first recording of the heart): 0.99 ± 0.08
  Vm RT (rise time): 4.70 ± 0.46
  Vm-Ca2+ delay: −5.24 ± 2.31
BCL 200, 4-AP 7 mM
  APD80 (action potential duration): 55.28 ± 2.94
  CVL (longitudinal conduction velocity): 0.56 ± 0.09
  CVT (transverse conduction velocity): 0.30 ± 0.05
  Ca2+ RT (rise time): 9.14 ± 1.31
  Ca t (calcium decay time constant): 39.09 ± 5.88
  CaTD80 (calcium transient duration): 106.68 ± 19.92
  NADH fluorescence intensity (normalized to first recording of the heart): 0.99 ± 0.07
  Vm RT (rise time): 4.72 ± 0.28
  Vm-Ca2+ delay: −8.14 ± 4.48
